Test results as given in patent publication US10251394B2, “Molecules having pesticidal utility, and intermediates, compositions, and processes, related thereto” (Dow AgroSciences LLC, priority 2016, dated 2019).

Tests used:
Type in all cases: in vivo
[1] = test system: Beet Armyworm (Spodoptera exigua); test: Bioassay on Beet Armyworm (BAW), 128-well diet tray assay; details: Beet Armyworm, Table ABC, read-out: BAW rating
Procedure, shortened: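 Second-instar larvae (one to five per well) placed on artificial diet surface-treated with 50 μg/cm^2 test molecule in 90:10 acetone-water, dried, eight wells per molecule. Held at 25° C, 14:10 light-dark, five to seven days; percent mortality recorded per well and averaged across the eight wells.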

[2] = test system: Cabbage Looper (Trichoplusia ni); test: Bioassay on Cabbage Looper (CL), 128-well diet tray assay; details: Cabbage Looper, Table ABC, read-out: CL rating
Procedure, shortened: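 Second-instar larvae, one to five per well, placed on artificial diet surface-treated with 50 μg/cm^2 compound in acetone-water, eight wells per compound. Held 5-7 days at 25° C, 14:10 light-dark; percent mortality per well averaged across wells.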

[3] = test system: Yellow Fever Mosquito (Aedes aegypti); test: Bioassay on Yellow Fever Mosquito (YFM) larvae, 96-well plate; details: Table ABC
Procedure, shortened: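 About 1-day-old larvae in water with liver powder were added to wells holding compound from a 4000 ppm DMSO master diluted in 90:10 water:acetone. Plates covered and kept at room temperature for 3 days, then each well scored for mortality on a rating scale.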

Structure (SMILES)	pest or weed control at 50 µg/cm2 [1] [%]	pest or weed control at 50 µg/cm2 [2] [%]	YFM rating [3]
C[C@@H](NC(=O)c1ccc(/C(F)=C/C(c2ccc(Cl)c(Cl)c2)C(F)(F)F)cc1C(F)(F)F)C(=O)N(C)CC(F)(F)F (stereo partly drawn) [F73, 4-((Z)-3-(3,4-Dichlorophenyl)-1,4,4,4-tetrafluorobut-1-en-1-yl)-N—((R)-1-(methyl(2,2,2-trifluoroethyl)amino)-1-oxopropan-2-yl)-2-(trifluoromethyl)benzamide]	50 to 100	50 to 100	A (80-100)
Cc1cc(C(/C=C(\F)c2ccc(C(=O)N[C@H](C)C(=O)NCC(F)(F)F)c(C(F)(F)F)c2)C(F)(F)F)cc(C)c1Cl (stereo partly drawn) [F69, 4-((Z)-3-(4-Chloro-3,5-dimethylphenyl)-1,4,4,4-tetrafluorobut-1-en-1-yl)-N—((R)-1-oxo-1-((2,2,2-trifluoroethyl)amino)propan-2-yl)-2-(trifluoromethyl)benzamide]	50 to 100	50 to 100	A (80-100)
CN(CC(F)(F)F)C(=O)CNC(=O)c1ccc(/C(F)=C/C(c2cc(Cl)c(Br)c(Cl)c2)C(F)(F)F)cc1C(F)(F)F (stereo not drawn) [F75, (Z)-4-(3-(4-Bromo-3,5-dichlorophenyl)-1,4,4,4-tetrafluorobut-1-en-1-yl)-N-(2-(methyl(2,2,2-trifluoroethyl)amino)-2-oxoethyl)-2-(trifluoromethyl)benzamide]	50 to 100	50 to 100	A (80-100)
C[C@@H](NC(=O)c1ccc(/C(F)=C/C(c2cc(Cl)c(C(F)F)c(Cl)c2)C(F)(F)F)cc1C(F)(F)F)C(=O)NCC(F)(F)F (stereo partly drawn) [F142, 4-((Z)-3-(3,5-Dichloro-4-(difluoromethyl)phenyl)-1,4,4,4-tetrafluorobut-1-en-1-yl)-N—((R)-1-oxo-1-((2,2,2-trifluoroethyl)amino)propan-2-yl)-2-(trifluoromethyl)benzamide]	50 to 100	50 to 100	A (80-100)
O=C(NC1(C(=O)NCC(F)(F)F)CC1)c1ccc(/C(F)=C/C(c2ccc(F)c(Cl)c2)C(F)(F)F)cc1C(F)(F)F (stereo not drawn) [F131, (Z)-4-(3-(3-Chloro-4-fluorophenyl)-1,4,4,4-tetrafluorobut-1-en-1-yl)-N-(1-((2,2,2-trifluoroethyl)carbamoyl)cyclopropyl)-2-(trifluoromethyl)benzamide]	50 to 100	50 to 100	A (80-100)
CN(CC(F)(F)F)C(=O)CNC(=O)c1ccc(/C(F)=C/C(c2cc(Br)cc(Br)c2)C(F)(F)F)cc1C(F)(F)F (stereo not drawn) [F84, (Z)-4-(3-(3,5-Dibromophenyl)-1,4,4,4-tetrafluorobut-1-en-1-yl)-N-(2-(methyl(2,2,2-trifluoroethyl)amino)-2-oxoethyl)-2-(trifluoromethyl)benzamide]	50 to 100	50 to 100	A (80-100)
O=C(CNC(=O)c1ccc(/C(F)=C/C(c2cc(Br)cc(Br)c2)C(F)(F)F)cc1C(F)(F)F)NCC(F)(F)F (stereo not drawn) [F35, (Z)-4-(3-(3,5-Dibromophenyl)-1,4,4,4-tetrafluorobut-1-en-1-yl)-N-(2-oxo-2-((2,2,2-trifluoroethyl)amino)ethyl)-2-(trifluoromethyl)benzamide]	50 to 100	50 to 100	A (80-100)
O=C(CNC(=O)c1ccc(/C(F)=C/C(c2ccc(Cl)c(Cl)c2)C(F)(F)F)cc1C(F)(F)F)NCC(F)(F)F (stereo not drawn) [F43, (Z)-4-(3-(3,4-Dichlorophenyl)-1,4,4,4-tetrafluorobut-1-en-1-yl)-N-(2-oxo-2-((2,2,2-trifluoroethyl)amino)ethyl)-2-(trifluoromethyl)benzamide]	50 to 100	50 to 100	A (80-100)
Cc1cc(C(/C=C(\F)c2ccc(C(=O)NC3(C(=O)NCC(F)(F)F)CC3)c(C(F)(F)F)c2)C(F)(F)F)cc(Cl)c1Cl (stereo not drawn) [PF15]	50 to 100	50 to 100	B (More than 0-Less than 80)
C[C@@H](NC(=O)c1ccc(/C(F)=C/C(c2ccc(Br)c(Br)c2)C(F)(F)F)cc1C(F)(F)F)C(=O)NCC(F)(F)F (stereo partly drawn) [F79, 4-((Z)-3-(3,4-Dibromophenyl)-1,4,4,4-tetrafluorobut-1-en-1-yl)-N—((R)-1-oxo-1-((2,2,2-trifluoroethyl)amino)propan-2-yl)-2-(trifluoromethyl)benzamide]	50 to 100	50 to 100	A (80-100)
CC(=O)CNC(=O)CNC(=O)c1ccc(/C(F)=C/C(c2cc(Cl)c(Cl)c(Cl)c2)C(F)(F)F)cc1C(F)(F)F (stereo not drawn) [F163, (Z)—N-(2-Oxo-2-((2-oxopropyl)amino)ethyl)-4-(1,4,4,4-tetrafluoro-3-(3,4,5-trichlorophenyl)but-1-en-1-yl)-2-(trifluoromethyl)benzamide]	50 to 100	50 to 100	A (80-100)
C[C@@H](NC(=O)c1ccc(/C(F)=C/C(c2cc(Cl)c(Br)c(Cl)c2)C(F)(F)F)cc1C(F)(F)F)C(=O)N(C)CC(F)(F)F (stereo partly drawn) [F76, 4-((Z)-3-(4-Bromo-3,5-dichlorophenyl)-1,4,4,4-tetrafluorobut-1-en-1-yl)-N—((R)-1-(methyl(2,2,2-trifluoroethyl)amino)-1-oxopropan-2-yl)-2-(trifluoromethyl)benzamide]	50 to 100	50 to 100	A (80-100)
CN(CC(=O)NCC(F)(F)F)C(=O)c1ccc(/C(F)=C/C(c2cc(Cl)c(Cl)c(Cl)c2)C(F)(F)F)cc1C(F)(F)F (stereo not drawn) [F68, (Z)—N-Methyl-N-(2-oxo-2-((2,2,2-trifluoroethyl)amino)ethyl)-4-(1,4,4,4-tetrafluoro-3-(3,4,5-trichlorophenyl)but-1-en-1-yl)-2-(trifluoromethyl)benzamide]	50 to 100	50 to 100	A (80-100)
CN(CC(F)(F)F)C(=O)C1(NC(=O)c2ccc(/C(F)=C/C(c3cc(Br)c(Cl)c(Br)c3)C(F)(F)F)cc2C(F)(F)F)CC1 (stereo not drawn) [F118, (Z)-4-(3-(4-Dibromo-4-chlorophenyl)-1,4,4,4-tetrafluorobut-1-en-1-yl)-N-(1-(methyl(2,2,2-trifluoroethyl)carbamoyl)cyclopropyl)-2-(trifluoromethyl)benzamide]	50 to 100	50 to 100	B (More than 0-Less than 80)
C=Cc1c(Cl)cc(C(/C=C(\F)c2ccc(C(=O)NCC(=O)N(C)CC(F)(F)F)c(C(F)(F)F)c2)C(F)(F)F)cc1Cl (stereo not drawn) [F85, (Z)-4-(3-(3,5-Dichloro-4-vinylphenyl)-1,4,4,4-tetrafluorobut-1-en-1-yl)-N-(2-(methyl(2,2,2-trifluoroethyl)amino)-2-oxoethyl)-2-(trifluoromethyl)benzamide]	50 to 100	50 to 100	A (80-100)
Cc1cc(C(/C=C(\F)c2ccc(C(=O)N[C@H](C)C(=O)N(C)CC(F)(F)F)c(C(F)(F)F)c2)C(F)(F)F)cc(Cl)c1Cl (stereo partly drawn) [PF14, 4-((Z)-3-(3,4-Dichloro-5-methylphenyl)-1,4,4,4-tetrafluorobut-1-en-1-yl)-N—((R)-1-(methyl(2,2,2-trifluoroethyl)amino)-1-oxopropan-2-yl)-2-(trifluoromethyl)benzamide]	50 to 100	50 to 100	A (80-100)
COc1ccc(C(/C=C(\F)c2ccc(C(=O)N[C@H](C)C(=O)NCC(F)(F)F)c(C(F)(F)F)c2)C(F)(F)F)cc1Cl (stereo partly drawn) [F161, 4-((Z)-3-(3-Chloro-4-methoxyphenyl)-1,4,4,4-tetrafluorobut-1-en-1-yl)-N—((R)-1-oxo-1-((2,2,2-trifluoroethyl)amino)propan-2-yl)-2-(trifluoromethyl)benzamide]	50 to 100	50 to 100	A (80-100)
C[C@@H](NC(=O)c1ccc(/C(F)=C/C(c2ccc(Cl)c(F)c2)C(F)(F)F)cc1C(F)(F)F)C(=O)NCC(F)(F)F (stereo partly drawn) [PF19, 4-((Z)-3-(4-Chloro-3-fluorophenyl)-1,4,4,4-tetrafluorobut-1-en-1-yl)-N—((R)-1-oxo-1-((2,2,2-trifluoroethyl)amino)propan-2-yl)-2-(trifluoromethyl)benzamide]	50 to 100	50 to 100	B (More than 0-Less than 80)
C[C@@H](NC(=O)c1ccc(/C(F)=C/C(c2cc(F)c(F)c(F)c2)C(F)(F)F)cc1C(F)(F)F)C(=O)NCC(F)(F)F (stereo partly drawn) [F159, N—((R)-1-Oxo-1-((2,2,2-trifluoroethyl)amino)propan-2-yl)-4-((Z)-1,4,4,4-tetrafluoro-3-(3,4,5-trifluorophenyl)but-1-en-1-yl)-2-(trifluoromethyl)benzamide]	50 to 100	50 to 100	A (80-100)
O=C(NC1(C(=O)NCC(F)(F)F)CC1)c1ccc(/C(F)=C/C(c2cc(Cl)cc(Cl)c2)C(F)(F)F)cc1C(F)(F)F (stereo not drawn) [F39, (Z)-4-(3-(3,5-Dichlorophenyl)-1,4,4,4-tetrafluorobut-1-en-1-yl)-N-(1-((2,2,2-trifluoroethyl)carbamoyl)cyclopropyl)-2-(trifluoromethyl)benzamide]	50 to 100	50 to 100	A (80-100)
